The text below walks through data of patent US20190119284A1, “ErbB Inhibitors and Uses Thereof” (The Regents of the University of California, priority 2016, published 2019).

Assay [1] has as its target T1, HER3 intracellular domain (665-1323) (Homo sapiens, UniProt P21860).
T1 construct: The HER3 intracellular domain (665-1323) was concentrated on vesicles; made in house
Kind of assay: HER3 intracellular domain autophosphorylation on vesicles. The assay is classed as biochemical. The following applies: 1 μM HER3 intracellular domain, 200 μM ATP. The method, then:
FIG. 11. […] 1 μM of The HER3 intracellular domain (665-1323) was concentrated on vesicles and incubated with 200 μM ATP in the presence of varying concentrations of compound 2. HER3 kinase activity inhibition was evaluated by western blotting for autophosphorylation of HER3.

Another assay addresses T2, ErbB3-ICD665-1323 (Homo sapiens, UniProt P21860).
T2 construct: The HER3 intracellular domain (665-1323) was concentrated on vesicles; made in house
Kind of assay: HER3 Autophosphorylation Assay. It counts as biochemical. The following applies: purified clustered HER3 intracellular domain. As for the experimental part:
HER3 Autophosphorylation Assay. ErbB3-ICD^665-1323 wild-type expression and purification was performed exactly as previously described. To monitor the change in autophosphorylation, 1 μM ErbB3-ICD^665-1323 protein was incubated with inhibitors (varied concentrations noted in the figure) and DOGS-Ni-NTA (prepared as described in Zhang et al.[4]) in 100 mM MOPS pH 7.4, containing 200 mM NaCl, divalent cations (2 mM MnCl2 plus 5 mM MgCl2), 5% glycerol, 0.1 mM DTT and 200 μM ATP for 1 hour at 25 ° C., and the reactions were stopped by adding 50 mM EDTA and SDS-PAGE gel-loading buffer for rapid qualitative comparison of autophosphorylation by SDS-PAGE and immunoblotting with anti-phosphotyrosine (pY20) and anti-(His)5.

The target in the next assay is BLK (Homo sapiens, UniProt P51451). Nature of the assay: Nanosyn in vitro kinase profiling: BLK. The assay is classed as biochemical. The method, then:
(§1) This was confirmed by in vitro profiling against a panel of kinases, with compound 2 only showing potent inhibition of EGFR and Ab1 (Table 2).
(§2) In vitro Kinome Screen. In vitro profiling of compound 2 at 100 nM was conducted by Nanosyn.

The next assay has as its target TIE2 (Homo sapiens, UniProt Q02763). Nature of the assay: Nanosyn in vitro kinase profiling: TIE2. It counts as biochemical. The method, then:
as §1, §2

For the next assay, the target named is P70S6K1 (Homo sapiens, UniProt P23443). Kind of assay: Nanosyn in vitro kinase profiling: P70S6K1. The assay is classed as biochemical. The method, then: as §1, §2
The next assay deals with EPH-B4 (Homo sapiens, UniProt P54760). Nature of the assay: Nanosyn in vitro kinase profiling: EPH-B4. The assay is classed as biochemical. The method, then:
as §1, §2

A further assay has as its target T3, wt EGFR (Homo sapiens, UniProt P00533).
T3 construct: leaving the same phosphosites on wt EGFR relatively unaffected up to 1 μM; endogenous in cells
Kind of assay: phosphosite signaling on wt EGFR. The assay is classed as cell-based.

The next assay relates to BT-474 cells. Kind of assay: 72 h proliferation of BT-474 cells in the presence or absence of NRG. The assay is classed as cell-based. The settings on record: BT-474, 72 h dose response +/- NRG. As for the experimental part: FIGS. 1A-1E. NRG rescues HER2 over-expressing cancer cells from HER2 inhibitors. […] FIG 1B: Same experiment as depicted in FIG. 1A, but with the inhibitor TAK-285. FIG. 1C: The ability of NRG to rescue SK-BR-3 and BT-474 cell proliferation from HER2 inhibitors is dose dependent. Cells were treated with 1 μM of the indicated inhibitor in the presence of varying concentrations of NRG, and proliferation was read out after 72 h (mean±SD, n=3). […] FIG. 1E: Cartoon schematic of the EGFR family kinase domain asymmetric dimer. The C-terminal domain of the ‘activator’ kinase (right) interacts with the N-terminal portion of the ‘receiver’ kinase (left). This interaction stabilizes the active conformation of the receiver kinase identified by the ‘in’ conformation of the receiver kinase's α-C helix and the ordered extension of the activation loop.
FIGS. 5A-5D. […] FIG. 5A: Chemical structure of compound 3 (also referred to herein as compound 178). FIG. 5B: Proliferation curves for compound 3 against the Ba/F3 cell line panel (mean±SD, n=3). […] FIG. 5D: The same assay in FIG. 2A was performed with compound 3 in SK-BR-3 cells.

Assay [2] deals with HER2/HER3 signaling in FaDu cells. Nature of the assay: HER2/HER3 signaling in FaDu cells, 24 h. It counts as cell-based. The settings on record: dose response 24 h, compared with lapatinib. The text has this:
FIGS. 20A-20B. […] FIG. 20A. […] FIG. 20B.

Assay [3] relates to mutationally activated EGFR. Kind of assay: proliferation assays of EGFR cell lines (FIG. 7C). The following applies: in contrast to lapatinib. The assay is classed as cell-based.
A further assay concerns the target JAK2 (Homo sapiens, UniProt O60674). Nature of the assay: Nanosyn in vitro kinase profiling: JAK2. It counts as biochemical. The settings on record: compound at 1 μM.
The target in the next assay is JAK1 (Homo sapiens, UniProt P23458). Kind of assay: Nanosyn in vitro kinase profiling: JAK1. The assay is classed as biochemical. The settings on record: compound at 1 μM.
Another assay has as its target TYK2 (Homo sapiens, UniProt P29597). Kind of assay: Nanosyn in vitro kinase profiling: TYK2. The settings on record: compound at 1 μM. It counts as biochemical.
Another assay has as its target CAMK4 (Homo sapiens, UniProt Q16566). Kind of assay: Nanosyn in vitro kinase profiling: CAMK4. The assay is classed as biochemical. The settings on record: compound at 1 μM.
A further assay has as its target MAPK1 (Homo sapiens, UniProt P28482). Nature of the assay: Nanosyn in vitro kinase profiling: MAPK1. It counts as biochemical. The settings on record: compound at 1 μM.
The next assay addresses FAK (Homo sapiens, UniProt Q05397). Nature of the assay: Nanosyn in vitro kinase profiling: FAK. The assay is classed as biochemical. The settings on record: compound at 1 μM.
Assay [4] relates to HER2/HER3 signaling in SK-BR-3 cells. Nature of the assay: HER2/HER3 signaling in SK-BR-3 cells (immunoblot). The assay is classed as cell-based. The following applies: serum-starved SK-BR-3 cells; drug added 15 min before NRG.
Procedure: Immunoblotting. Cells were grown in 6 well plates and treated according to the indicated conditions at which point the media was aspirated, cells were washed with 1 mL of cold PBS, which was then aspirated and the plates were frozen at −80° C. The frozen cells were thawed on the plates in a buffer containing 50 mM Tris pH 7.5, 150 mM NaCl, 1 mM EDTA, and 1% Triton X-100 supplemented with 1× phosphatase (PhoSTOP, Roche) and 1× protease (complete-mini tablets, Roche) inhibitors. Lysates were scraped, transferred to Eppendorf tubes, and cleared by centrifugation at 20,000×g for 20 min at 4° C. The clarified lysates were transferred to chilled, clean tubes, and normalized for protein concentration by Bradford (Bio-Rad). […] Primary antibodies were detected using IRDye secondary antibodies (Li-Cor) according to the manufacturer's recommendations and scanned on an Odyssey imager (Li-Cor).

SMILES strings stand for the structures. A value given as a limit tells only on which side of the number the result lay.

Sequence of P70S6K1 (P23443 whole entry, species assumed): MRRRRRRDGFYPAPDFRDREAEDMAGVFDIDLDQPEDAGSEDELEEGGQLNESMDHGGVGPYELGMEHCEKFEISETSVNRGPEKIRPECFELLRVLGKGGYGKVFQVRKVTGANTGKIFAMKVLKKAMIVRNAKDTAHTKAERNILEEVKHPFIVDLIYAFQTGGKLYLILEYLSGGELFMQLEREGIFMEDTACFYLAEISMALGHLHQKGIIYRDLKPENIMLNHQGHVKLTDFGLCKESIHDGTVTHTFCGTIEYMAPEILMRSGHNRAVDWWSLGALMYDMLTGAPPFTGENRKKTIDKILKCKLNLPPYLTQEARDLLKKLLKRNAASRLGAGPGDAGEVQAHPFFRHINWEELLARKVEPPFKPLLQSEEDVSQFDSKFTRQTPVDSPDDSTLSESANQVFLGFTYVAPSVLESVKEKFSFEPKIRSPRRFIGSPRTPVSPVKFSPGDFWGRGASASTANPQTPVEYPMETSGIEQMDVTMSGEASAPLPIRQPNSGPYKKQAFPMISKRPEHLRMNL
Sequence of BLK (P51451 whole entry): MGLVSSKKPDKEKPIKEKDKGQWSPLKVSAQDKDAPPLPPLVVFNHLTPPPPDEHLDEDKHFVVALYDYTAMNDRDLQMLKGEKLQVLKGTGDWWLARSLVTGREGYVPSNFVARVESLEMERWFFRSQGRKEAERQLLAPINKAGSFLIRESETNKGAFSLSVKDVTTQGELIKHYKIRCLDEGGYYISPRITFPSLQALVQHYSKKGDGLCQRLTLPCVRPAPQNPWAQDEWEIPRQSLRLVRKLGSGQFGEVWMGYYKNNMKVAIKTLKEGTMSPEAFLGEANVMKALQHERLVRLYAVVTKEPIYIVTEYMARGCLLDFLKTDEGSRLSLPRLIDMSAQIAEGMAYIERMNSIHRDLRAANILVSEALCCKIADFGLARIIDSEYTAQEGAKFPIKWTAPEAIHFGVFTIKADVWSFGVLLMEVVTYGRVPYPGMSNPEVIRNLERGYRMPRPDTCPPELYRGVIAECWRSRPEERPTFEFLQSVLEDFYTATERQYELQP
Sequence of TIE2 (Q02763 23-1124, species assumed): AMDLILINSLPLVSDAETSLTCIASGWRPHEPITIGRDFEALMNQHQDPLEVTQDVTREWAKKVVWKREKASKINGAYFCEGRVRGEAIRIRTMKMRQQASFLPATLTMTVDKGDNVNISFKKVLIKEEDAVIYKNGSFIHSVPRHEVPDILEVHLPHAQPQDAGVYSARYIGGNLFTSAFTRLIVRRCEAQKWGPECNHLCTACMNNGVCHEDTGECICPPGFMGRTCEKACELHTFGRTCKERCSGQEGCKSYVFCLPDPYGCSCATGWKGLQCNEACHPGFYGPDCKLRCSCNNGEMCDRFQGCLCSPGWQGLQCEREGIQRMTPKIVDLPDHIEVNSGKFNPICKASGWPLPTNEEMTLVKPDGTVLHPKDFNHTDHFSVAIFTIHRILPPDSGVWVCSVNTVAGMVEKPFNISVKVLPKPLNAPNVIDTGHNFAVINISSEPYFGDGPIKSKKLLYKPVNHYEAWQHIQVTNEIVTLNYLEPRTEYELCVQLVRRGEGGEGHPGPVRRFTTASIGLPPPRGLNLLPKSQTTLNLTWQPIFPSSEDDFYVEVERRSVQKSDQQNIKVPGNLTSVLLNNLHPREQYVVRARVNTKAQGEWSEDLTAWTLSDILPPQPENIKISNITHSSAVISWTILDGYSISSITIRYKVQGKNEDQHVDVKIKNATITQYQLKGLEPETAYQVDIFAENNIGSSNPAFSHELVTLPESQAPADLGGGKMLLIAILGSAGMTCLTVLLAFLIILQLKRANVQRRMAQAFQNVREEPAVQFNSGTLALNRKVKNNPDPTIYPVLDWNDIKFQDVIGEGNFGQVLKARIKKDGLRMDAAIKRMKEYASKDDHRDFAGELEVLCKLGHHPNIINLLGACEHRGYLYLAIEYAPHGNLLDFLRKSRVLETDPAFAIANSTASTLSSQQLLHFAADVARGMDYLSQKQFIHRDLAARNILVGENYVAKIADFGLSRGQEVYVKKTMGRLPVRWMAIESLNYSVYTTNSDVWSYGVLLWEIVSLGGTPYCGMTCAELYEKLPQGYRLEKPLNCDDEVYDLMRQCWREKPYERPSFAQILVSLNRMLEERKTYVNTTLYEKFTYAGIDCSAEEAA
Sequence of EPH-B4 (P54760 16-987, species assumed): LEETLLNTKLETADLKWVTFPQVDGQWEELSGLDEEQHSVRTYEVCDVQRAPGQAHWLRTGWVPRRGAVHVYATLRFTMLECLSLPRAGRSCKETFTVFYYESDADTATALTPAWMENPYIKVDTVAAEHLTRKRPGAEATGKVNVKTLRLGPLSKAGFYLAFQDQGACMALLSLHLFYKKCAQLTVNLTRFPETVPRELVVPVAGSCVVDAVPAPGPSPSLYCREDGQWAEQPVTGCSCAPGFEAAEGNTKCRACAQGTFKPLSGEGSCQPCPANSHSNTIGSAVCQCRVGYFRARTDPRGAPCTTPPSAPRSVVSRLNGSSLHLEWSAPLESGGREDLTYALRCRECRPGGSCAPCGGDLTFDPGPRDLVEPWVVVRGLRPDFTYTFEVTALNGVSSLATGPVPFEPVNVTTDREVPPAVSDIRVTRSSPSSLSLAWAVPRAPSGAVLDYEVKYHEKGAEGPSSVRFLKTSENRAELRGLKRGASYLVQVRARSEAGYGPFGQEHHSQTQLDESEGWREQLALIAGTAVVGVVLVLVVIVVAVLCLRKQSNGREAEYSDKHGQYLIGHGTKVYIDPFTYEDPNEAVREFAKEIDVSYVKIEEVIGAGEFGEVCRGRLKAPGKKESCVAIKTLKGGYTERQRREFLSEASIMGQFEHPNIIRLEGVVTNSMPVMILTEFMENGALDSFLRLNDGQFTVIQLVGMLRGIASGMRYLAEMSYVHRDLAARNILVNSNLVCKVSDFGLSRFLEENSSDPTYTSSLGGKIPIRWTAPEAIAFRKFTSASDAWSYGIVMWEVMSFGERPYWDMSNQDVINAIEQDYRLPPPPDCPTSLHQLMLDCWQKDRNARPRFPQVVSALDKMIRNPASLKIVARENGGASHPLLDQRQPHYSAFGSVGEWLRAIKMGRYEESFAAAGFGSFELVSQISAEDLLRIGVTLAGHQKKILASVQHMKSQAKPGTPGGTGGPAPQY
Sequence of FAK (Q05397 whole entry, species assumed): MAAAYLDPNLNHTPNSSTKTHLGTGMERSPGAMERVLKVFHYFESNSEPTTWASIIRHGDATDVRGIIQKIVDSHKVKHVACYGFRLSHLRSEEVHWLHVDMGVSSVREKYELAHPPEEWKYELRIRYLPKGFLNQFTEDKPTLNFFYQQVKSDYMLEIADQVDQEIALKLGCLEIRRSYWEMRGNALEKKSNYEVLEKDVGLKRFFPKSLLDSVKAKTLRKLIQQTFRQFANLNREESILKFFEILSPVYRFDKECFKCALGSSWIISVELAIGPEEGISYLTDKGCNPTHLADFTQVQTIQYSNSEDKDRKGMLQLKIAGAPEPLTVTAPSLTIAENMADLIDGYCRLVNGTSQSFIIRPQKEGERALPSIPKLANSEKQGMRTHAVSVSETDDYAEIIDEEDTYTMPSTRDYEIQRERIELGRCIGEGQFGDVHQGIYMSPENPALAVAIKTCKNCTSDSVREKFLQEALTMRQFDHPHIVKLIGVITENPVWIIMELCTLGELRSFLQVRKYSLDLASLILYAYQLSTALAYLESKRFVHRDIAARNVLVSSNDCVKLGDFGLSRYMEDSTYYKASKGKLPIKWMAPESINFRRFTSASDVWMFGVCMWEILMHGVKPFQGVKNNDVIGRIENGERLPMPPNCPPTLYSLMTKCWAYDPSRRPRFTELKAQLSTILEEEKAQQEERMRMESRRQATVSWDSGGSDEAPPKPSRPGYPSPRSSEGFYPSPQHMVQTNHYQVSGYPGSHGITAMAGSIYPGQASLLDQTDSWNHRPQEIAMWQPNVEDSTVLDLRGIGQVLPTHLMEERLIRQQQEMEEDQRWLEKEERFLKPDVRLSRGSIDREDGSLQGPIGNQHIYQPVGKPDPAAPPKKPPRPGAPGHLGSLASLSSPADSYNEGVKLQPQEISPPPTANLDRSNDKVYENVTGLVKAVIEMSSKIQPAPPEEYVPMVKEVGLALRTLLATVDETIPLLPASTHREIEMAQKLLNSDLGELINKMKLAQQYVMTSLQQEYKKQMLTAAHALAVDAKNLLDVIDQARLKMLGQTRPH
Sequence of MAPK1 (P28482 whole entry, species assumed): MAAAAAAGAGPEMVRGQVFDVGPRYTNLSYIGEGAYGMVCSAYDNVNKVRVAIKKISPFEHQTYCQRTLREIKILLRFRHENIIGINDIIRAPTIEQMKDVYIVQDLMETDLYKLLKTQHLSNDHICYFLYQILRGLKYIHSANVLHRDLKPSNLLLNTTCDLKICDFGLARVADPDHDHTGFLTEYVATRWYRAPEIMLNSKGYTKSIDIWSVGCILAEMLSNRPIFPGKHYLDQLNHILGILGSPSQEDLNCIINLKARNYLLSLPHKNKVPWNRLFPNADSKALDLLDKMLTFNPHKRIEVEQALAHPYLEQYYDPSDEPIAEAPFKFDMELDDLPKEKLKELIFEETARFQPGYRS
Sequence of CAMK4 (Q16566 whole entry, species assumed): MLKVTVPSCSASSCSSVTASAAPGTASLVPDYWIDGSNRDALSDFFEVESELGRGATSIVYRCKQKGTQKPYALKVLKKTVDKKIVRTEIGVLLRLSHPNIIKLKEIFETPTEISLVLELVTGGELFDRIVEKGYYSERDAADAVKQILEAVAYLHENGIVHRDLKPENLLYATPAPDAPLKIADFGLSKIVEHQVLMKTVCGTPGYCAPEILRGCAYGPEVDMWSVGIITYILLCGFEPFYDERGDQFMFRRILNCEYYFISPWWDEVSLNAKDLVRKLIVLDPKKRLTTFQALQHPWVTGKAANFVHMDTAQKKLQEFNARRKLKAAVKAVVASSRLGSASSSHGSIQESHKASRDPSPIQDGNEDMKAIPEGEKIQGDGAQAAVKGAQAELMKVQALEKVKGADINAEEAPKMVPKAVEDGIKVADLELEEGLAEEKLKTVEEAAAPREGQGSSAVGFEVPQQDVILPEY

Turning to `COc1ccc(-c2ccco2)cc1Nc1ncnc2[nH]nc(-c3ccco3)c12` [compound 2, 3-(furan-2-yl)-N-(5-(furan-2-yl)-2-methoxyphenyl)-1H-pyrazolo[3,4-d]pyrimidin-4-amine], the “binding to HER3 / inhibition of HER3 autophosphorylation” value in [1] is “binds to the active site of HER3”. Moreover, the “inhibition of HER3 auto-phosphorylation” value at ErbB3-ICD665-1323 is recorded as “able to inhibit”. For the same compound, the inhibition at 0.1 µM came to 59.9% against BLK (compound at 100 nM), 12.8% at TIE2 (compound at 100 nM), 8.88% against P70S6K1 (compound at 100 nM) and 3.44% on EPH-B4 (compound at 100 nM). The inhibition at 1 µM was determined as 90.4% against BLK (compound at 1 μM), 59.7% at TIE2 (compound at 1 μM), 38.4% against P70S6K1 (compound at 1 μM) and 21.7% against EPH-B4 (compound at 1 μM).
For `COc1ccc(-c2ccoc2)cc1Nc1ncnc2[nH]cc(-c3cc[nH]n3)c12` [compound 3, N-(5-(furan-3-yl)-2-methoxyphenyl)-5-(1H-pyrazol-3-yl)-7H-pyrrolo[2,3-d]pyrimidin-4-amine], the “same phosphosites on wt EGFR relatively unaffected up to” value at wt EGFR is above 1 µM. Moreover, the “sensitivity of proliferation inhibition to NRG” value in the assay with BT-474 cells is on record as “insensitive to the presence of NRG”. For the same compound, the “inhibition of pHER3 and downstream signaling” value in assay [2] is “better able to inhibit pHER3 and its downstream signaling pathways”. In addition, the “preferential inhibition in proliferation assays” value in assay [3] is “preferential inhibition of the mutationally activated EGFR”. Also, the inhibition at 1 µM was 83% at JAK2; 52% on JAK1; 51% at TYK2; 0% against CAMK4; -2% against MAPK1; -10% against FAK.
As for `CS(=O)(=O)CCNCc1ccc(-c2ccc3ncnc(Nc4ccc(OCc5cccc(F)c5)c(Cl)c4)c3c2)o1` [lapatinib], the “concentration sufficient to inhibit the entire RTK signaling pathway” value in [4] was “greater than 100 nM”.
